According to PubChem BioAssay (NCI):
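All cell lines were grown in 96-well plates and treated with compound for 48 hours. TGI: concentration producing complete growth inhibition.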

Tests used:
Assay in all cases: NCI tumour cell line growth inhibition, 48 h
A498 renal = system: A498 renal
CAKI-1 renal = system: CAKI-1 renal
HCC-2998 colon = system: HCC-2998 colon
HOP-92 NSCLC = system: HOP-92 NSCLC
MDA-MB-435 = system: MDA-MB-435
NCI-H460 lung = system: NCI-H460 lung
OVCAR-3 ovarian = system: OVCAR-3 ovarian
OVCAR-4 ovarian = system: OVCAR-4 ovarian
SF-295 CNS = system: SF-295 CNS
SF-539 CNS = system: SF-539 CNS
SK-MEL-2 melanoma = system: SK-MEL-2 melanoma
DLD-1 colon = system: DLD-1 colon
DMS 273 small cell lung = system: DMS 273 small cell lung
LOX IMVI melanoma = system: LOX IMVI melanoma
M19-MEL melanoma = system: M19-MEL melanoma
SNB-78 CNS = system: SNB-78 CNS
COLO 205 colon = system: COLO 205 colon
HCT-116 colon = system: HCT-116 colon
IGROV1 ovarian = system: IGROV1 ovarian
786-0 renal = system: 786-0 renal

SMILES	TGI (A498 renal) [µM]	TGI (CAKI-1 renal) [µM]	TGI (HCC-2998 colon) [µM]	TGI (HOP-92 NSCLC) [µM]	TGI (MDA-MB-435) [µM]	TGI (NCI-H460 lung) [µM]	TGI (OVCAR-3 ovarian) [µM]	TGI (OVCAR-4 ovarian) [µM]	TGI (SF-295 CNS) [µM]	TGI (SF-539 CNS) [µM]	TGI (SK-MEL-2 melanoma) [µM]	TGI (DLD-1 colon) [µM]	TGI (DMS 273 small cell lung) [µM]	TGI (LOX IMVI melanoma) [µM]	TGI (M19-MEL melanoma) [µM]	TGI (SNB-78 CNS) [µM]	TGI (COLO 205 colon) [µM]	TGI (HCT-116 colon) [µM]	TGI (IGROV1 ovarian) [µM]	TGI (786-0 renal) [µM]
Cc1ccc(-c2csc(=Nc3c(C)n(C)n(-c4ccccc4)c3=O)n2CCO)cc1	> 100	> 100	> 100	> 100	> 100	> 100	> 100	> 100	> 100	> 100	> 100	–	–	–	–	–	–	–	–	–
CCCCN1C(=O)NC(Cc2ccccc2)C1=O (configuration not stated)	–	> 100	> 100	–	–	> 100	–	–	> 100	> 100	> 100	> 100	> 100	> 100	> 100	> 100	–	–	–	–
CCCCCCCCCCCCCCCCOCC(COP(=O)([O-])OCC[N+](C)(C)C)OCCCCCCCCCCCCCCCC (configuration not stated)	> 100	> 100	> 100	> 100	–	> 100	> 100	> 100	> 100	> 100	> 100	> 100	> 100	> 100	> 100	> 100	> 100	> 100	> 100	–
OCCN(CCO)c1ccc2c(c1)Cc1ccccc1-2	80.5	32	> 100	73.1	> 100	50	45.9	> 100	> 100	> 100	63.2	–	–	> 100	–	–	35.7	> 100	–	> 100
CC(C)(C)C(=O)C(C(c1ccccc1)N1CCOCC1)N1CCOCC1 (configuration not stated)	> 100	> 100	> 100	> 100	> 100	> 100	> 100	> 100	> 100	–	> 100	–	–	> 100	–	–	–	> 100	> 100	> 100
O=[n+]1c2ccccc2n([O-])c2cc(Br)ccc21	40.2	17.2	39.9	–	36.5	> 100	9.04	45.2	46.4	37.5	56.8	–	–	13.6	–	–	57.2	> 100	18.8	> 100
CCO[C@]12C[C@H](OC)[C@@]3(O)CC(C1[C@H]3O)C13C4C2[C@H](OC)C1[C@](COC)(CN4CC)[C@H](O)C[C@@H]3OC (some centres not stated)	–	–	> 100	–	–	> 100	–	> 100	–	> 100	–	> 100	> 100	> 100	> 100	> 100	> 100	> 100	> 100	–
CC(C)[C@](O)(C(=O)OCC1CC[N+]2([O-])CC[C@@H](O)C12)[C@H](C)O (some centres not stated)	> 59.4	> 375	> 375	> 375	–	> 159	> 375	> 375	> 375	> 375	> 317	> 375	> 375	> 203	> 375	> 375	> 375	> 256	> 375	–
CC(=O)Oc1ccccc1C(=O)O	–	> 100	–	–	> 100	–	> 100	> 100	> 100	> 100	> 100	–	–	> 100	–	–	> 100	> 100	–	> 100
COc1ccc(N2C(=O)C3c4[nH]c5cccc(C)c5c4C4CCC(C(C)(C)C)CC4C3C2=O)cc1 (configuration not stated)	> 10	> 10	> 10	–	> 10	> 10	> 10	2.26	> 10	> 10	> 10	–	–	> 10	–	–	> 10	> 10	> 10	–
Clc1c(Cl)c2c(Cl)c(Cl)c1C[P+](c1ccccc1)(c1ccccc1)CC[P+](c1ccccc1)(c1ccccc1)Cc1c(Cl)c(Cl)c(c(Cl)c1Cl)C[P+](c1ccccc1)(c1ccccc1)CC[P+](c1ccccc1)(c1ccccc1)C2	24.4	33.1	14.5	6.31	–	12.4	8.97	8.59	12.6	16.2	6.09	13.2	6.59	7.89	9.91	18.9	2.89	9.71	12.4	19.5
CC#C[I+]c1ccccc1	> 100	27.9	56.6	30.8	–	> 100	33.9	46.3	> 100	35.1	> 100	30.2	27.8	28.2	45	54.5	26	35.3	> 100	28.4
